Experimental data taken from patent US11390616B2 (BRISTOL-MYERS SQUIBB COMPANY, priority 2015, dated 2022).

Target: T1, human APJ receptor (Homo sapiens, UniProt P35414)
T1 construct: expressed in transfected cells; host or cells: HEK293
T1 sequence (P35414 1-380): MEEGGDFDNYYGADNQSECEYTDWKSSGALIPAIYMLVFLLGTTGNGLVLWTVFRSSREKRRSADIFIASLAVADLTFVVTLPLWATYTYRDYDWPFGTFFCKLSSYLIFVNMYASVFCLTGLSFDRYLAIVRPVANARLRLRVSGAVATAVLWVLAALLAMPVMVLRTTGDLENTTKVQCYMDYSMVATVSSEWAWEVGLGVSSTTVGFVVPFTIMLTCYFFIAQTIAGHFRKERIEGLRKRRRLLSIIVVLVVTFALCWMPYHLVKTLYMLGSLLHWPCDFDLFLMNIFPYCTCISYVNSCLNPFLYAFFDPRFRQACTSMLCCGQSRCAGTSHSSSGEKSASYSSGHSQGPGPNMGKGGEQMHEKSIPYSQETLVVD
Experiment: Intracellular cAMP accumulation assay (APJ hcAMP, HTRF)
Type: cell-based
Settings: HEK293 cells stably expressing human APJ receptor; inhibition of forskolin-mediated cAMP production; read-out: APJ cAMP Potency range
How it was run: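 HEK293 cells stably expressing the receptor (5,000/well) treated with compound plus […] and 2 μM forskolin for 30 min at room temperature; cAMP by HTRF against a cAMP standard curve. EC50 from variable-slope sigmoidal fit; Ymax as % of (Pyr1)apelin-13 inhibition.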

Structure (SMILES)	EC50 [nM]
CCc1cccc(CC)c1-n1c(-c2ccn(C(C)C)n2)nc(=O)c(Cc2ccc(-c3cccn(C)c3=O)c(F)c2)c1O [Example 87, 1-(2,6-diethylphenyl)-5-{[3-fluoro-4-(1-methyl-2-oxo-1,2-dihydropyridin-3-yl)phenyl]methyl}-6-hydroxy-2-[1-(propan-2-yl)-1H-pyrazol-3-yl]-1,4-dihydropyrimidin-4-one]	0.01 to 10
CCc1cccc(CC)c1-n1c(-c2ccn(C)n2)nc(=O)c(Cc2ccc(-c3cccn(C)c3=O)cc2F)c1O [Example 88, 1-(2,6-diethylphenyl)-5-{[2-fluoro-4-(1-methyl-2-oxo-1,2-dihydropyridin-3-yl)phenyl]methyl}-6-hydroxy-2-(1-methyl-1H-pyrazol-3-yl)-1,4-dihydropyrimidin-4-one]	0.01 to 10
CCc1cccc(CC)c1-n1c(-c2ccn(C)n2)nc(=O)c(Cc2ccc(-c3ccc(F)cc3C(N)=O)cc2F)c1O [Example 89, 4′-{[1-(2,6-diethylphenyl)-6-hydroxy-2-(1-methyl-1H-pyrazol-3-yl)-4-oxo-1,4-dihydropyrimidin-5-yl]methyl}-3′,4-difluoro-[1,1′-biphenyl]-2-carboxamide]	0.01 to 10
CCc1cccc(CC)c1-n1c(-c2ccn(CC(C)C)n2)nc(=O)c(Cc2ccc(-c3cccn(C)c3=O)c(F)c2)c1O [Example 90, 1-(2,6-diethylphenyl)-5-{[3-fluoro-4-(1-methyl-2-oxo-1,2-dihydropyridin-3-yl)phenyl]methyl}-6-hydroxy-2-[1-(2-methylpropyl)-1H-pyrazol-3-yl]-1,4-dihydropyrimidin-4-one]	100 to 300
CCc1cccc(CC)c1-n1c(-c2ccn(CC(C)C)n2)nc(=O)c(Cc2ccc(-c3ccnc(F)c3C)c(F)c2)c1O [Example 91, 1-(2,6-diethylphenyl)-5-{[3-fluoro-4-(2-fluoro-3-methylpyridin-4-yl)phenyl]methyl}-6-hydroxy-2-[1-(2-methylpropyl)-1H-pyrazol-3-yl]-1,4-dihydropyrimidin-4-one]	100 to 300
CCc1cccc(CC)c1-n1c(-c2ccn(CC(C)C)n2)nc(=O)c(Cc2ccc(-c3ccc(F)cc3C(N)=O)c(F)c2)c1O [Example 92, 4′-{[1-(2,6-diethylphenyl)-6-hydroxy-2-[1-(2-methylpropyl)-1H-pyrazol-3-yl]-4-oxo-1,4-dihydropyrimidin-5-yl]methyl}-2′,4-difluoro-[1,1′-biphenyl]-2-carboxamide]	10 to 100
CCc1cccc(CC)c1-n1c(-c2ccn(C3CC3)n2)nc(=O)c(Cc2ccc(-c3cccn(C)c3=O)c(F)c2)c1O [Example 93, 2-(1-cyclopropyl-1H-pyrazol-3-yl)-1-(2,6-diethylphenyl)-5-{[3-fluoro-4-(1-methyl-2-oxo-1,2-dihydropyridin-3-yl)phenyl]methyl}-6-hydroxy-1,4-dihydropyrimidin-4-one]	0.01 to 10
CCc1cccc(CC)c1-n1c(-c2ccn(C3CC3)n2)nc(=O)c(Cc2ccc(-c3ccc(F)cc3C(N)=O)c(F)c2)c1O [Example 94, 4′-{[2-(1-cyclopropyl-1H-pyrazol-3-yl)-1-(2,6-diethylphenyl)-6-hydroxy-4-oxo-1,4-dihydropyrimidin-5-yl]methyl}-2′,4-difluoro-[1,1′-biphenyl]-2-carboxamide]	0.01 to 10
CCCCc1nc(=O)c(Cc2ccc(-c3cccnc3C)cc2)c(O)n1[C@@H](CC)c1cccc(C#N)c1 [Example 96, 3-[(1S)-1-(2-butyl-6-hydroxy-5-{[4-(2-methylpyridin-3-yl)phenyl]methyl}-4-oxo-1,4-dihydropyrimidin-1-yl)propyl]benzonitrile]	0.01 to 10
CCCCc1nc(=O)c(Cc2ccc(-c3ccc(F)nc3)cc2)c(O)n1[C@@H](CC)c1cccc(C#N)c1 [Example 97, 3-[(1S)-1-(2-butyl-5-{[4-(6-fluoropyridin-3-yl)phenyl]methyl}-6-hydroxy-4-oxo-1,4-dihydropyrimidin-1-yl)propyl]benzonitrile]	0.01 to 10
CCCCc1nc(=O)c(Cc2ccc(-c3ccncc3C)cc2)c(O)n1[C@@H](CC)c1cccc(C#N)c1 [Example 98, 3-[(1S)-1-(2-butyl-6-hydroxy-5-{[4-(3-methylpyridin-4-yl)phenyl]methyl}-4-oxo-1,4-dihydropyrimidin-1-yl)propyl]benzonitrile]	0.01 to 10
CCCCc1nc(=O)c(Cc2ccc(-c3ccnc(F)c3C)cc2)c(O)n1[C@@H](CC)c1cccc(C#N)c1 [Example 99, 3-[(1S)-1-(2-butyl-5-{[4-(2-fluoro-3-methylpyridin-4-yl)phenyl]methyl}-6-hydroxy-4-oxo-1,4-dihydropyrimidin-1-yl)propyl]benzonitrile]	0.01 to 10
CCCCc1nc(=O)c(Cc2ccc(-n3cc(Cl)ccc3=O)cc2)c(O)n1[C@@H](CC)c1cccc(C#N)c1 [Example 100, 3-[(1S)-1-(2-butyl-5-{[4-(5-chloro-2-oxo-1,2-dihydropyridin-1-yl)phenyl]methyl}-6-hydroxy-4-oxo-1-4-dihydropyrimidin-1-yl)propyl]benzonitrile]	0.01 to 10

Next, values leading:

EC50 [nM]	Structure (SMILES)
0.01 to 10	CCc1cccc(CC)c1-n1c(-c2ccn(CC)n2)nc(=O)c(Cc2ccc(-c3ccncc3C)c(F)c2)c1O [Example 76, 1-(2,6-diethylphenyl)-2-(1-ethyl-1H-pyrazol-3-yl)-5-{[3-fluoro-4-(3-methylpyridin-4-yl)phenyl]methyl}-6-hydroxy-1,4-dihydropyrimidin-4-one]
0.01 to 10	CCc1cccc(CC)c1-n1c(-c2ccn(CC)n2)nc(=O)c(Cc2ccc(-c3ccnc(F)c3C)c(F)c2)c1O [Example 77, 1-(2,6-diethylphenyl)-2-(1-ethyl-1H-pyrazol-3-yl)-5-{[3-fluoro-4-(2-fluoro-3-methylpyridin-4-yl)phenyl]methyl}-6-hydroxy-1,4-dihydropyrimidin-4-one]
0.01 to 10	CCc1cccc(CC)c1-n1c(-c2csc(C)n2)nc(=O)c(Cc2ccc(-c3ccnc(F)c3C)c(F)c2)c1O [Example 78, 1-(2,6-diethylphenyl)-5-{[3-fluoro-4-(2-fluoro-3-methylpyridin-4-yl)phenyl]methyl}-6-hydroxy-2-(2-methyl-1,3-thiazol-4-yl)-1,4-dihydropyrimidin-4-one]
0.01 to 10	CCc1cccc(CC)c1-n1c(-c2nc(C)cs2)nc(=O)c(Cc2ccc(-c3ccc(F)nc3C)c(F)c2)c1O [Example 79, 1-(2,6-diethylphenyl)-5-{[3-fluoro-4-(6-fluoro-2-methylpyridin-3-yl)phenyl]methyl}-6-hydroxy-2-(4-methyl-1,3-thiazol-2-yl)-1,4-dihydropyrimidin-4-one]
0.01 to 10	CCc1cccc(CC)c1-n1c(-c2ccn(CC)n2)nc(=O)c(Cc2ccc(-c3ccc(F)nc3C)c(F)c2)c1O [Example 80, 1-(2,6-diethylphenyl)-2-(1-ethyl-1H-pyrazol-3-yl)-5-{[3-fluoro-4-(6-fluoro-2-methylpyridin-3-yl)phenyl]methyl}-6-hydroxy-1,4-dihydropyrimidin-4-one]
0.01 to 10	CCc1cccc(CC)c1-n1c(-c2nc(C)cs2)nc(=O)c(Cc2ccc(-c3ccc(F)cc3C(N)=O)c(F)c2)c1O [Example 82, 4′-{[1-(2,6-diethylphenyl)-6-hydroxy-2-(4-methyl-1,3-thiazol-2-yl)-4-oxo-1,4-dihydropyrimidin-5-yl]methyl}-2′,4-difluoro-[1,1′-biphenyl]-2-carboxamide]
0.01 to 10	CCc1cccc(CC)c1-n1c(-c2nc(C)cs2)nc(=O)c(Cc2ccc(-c3cccn(C)c3=O)c(F)c2)c1O [Example 83, 1-(2,6-diethylphenyl)-5-{[3-fluoro-4-(1-methyl-2-oxo-1,2-dihydropyridin-3-yl)phenyl]methyl}-6-hydroxy-2-(4-methyl-1,3-thiazol-2-yl)-1,4-dihydropyrimidin-4-one]
0.01 to 10	CCc1cccc(CC)c1-n1c(-c2ccn(C(C)C)n2)nc(=O)c(Cc2ccc(-c3ccc(F)cc3C(N)=O)c(F)c2)c1O [Example 84, 4′-{[1-(2,6-diethylphenyl)-6-hydroxy-4-oxo-2-[1-(propan-2-yl)-1H-pyrazol-3-yl]-1,4-dihydropyrimidin-5-yl]methyl}-2′,4-difluoro-[1,1′-biphenyl]-2-carboxamide]
0.01 to 10	CCc1cccc(CC)c1-n1c(-c2ccn(C(C)C)n2)nc(=O)c(Cc2ccc(-c3ccnc(F)c3C)c(F)c2)c1O [Example 85, 1-(2,6-diethylphenyl)-5-{[3-fluoro-4-(2-fluoro-3-methylpyridin-4-yl)phenyl]methyl}-6-hydroxy-2-[1-(propan-2-yl)-1H-pyrazol-3-yl]-1,4-dihydropyrimidin-4-one]
0.01 to 10	CCc1cccc(CC)c1-n1c(-c2ccn(C)n2)nc(=O)c(Cc2ccc(-c3ccnc(F)c3C)cc2F)c1O [Example 86, 1-(2,6-diethylphenyl)-5-{[2-fluoro-4-(2-fluoro-3-methylpyridin-4-yl)phenyl]methyl}-6-hydroxy-2-(1-methyl-1H-pyrazol-3-yl)-1,4-dihydropyrimidin-4-one]

Same assay, conditions: HEK293 cells stably expressing human APJ receptor; inhibition of forskolin-mediated cAMP production; read-out: Human APJ cAMP EC50 potency range

EC50 [nM]	Structure (SMILES)
0.01 to 10	CCCCc1nc(=O)c(Cc2ccc(-c3ccc(F)nc3C)cc2)c(O)n1[C@@H](CC)c1cccc(C#N)c1 [Example 95, (S)-3-(1-(2-butyl-5-(4-(6-fluoro-2-methylpyridin-3-yl)benzyl)-6-hydroxy-4-oxopyrimidin-1(4H)-yl)propyl)benzonitrile]
